Literature values in patent EP2594258B1, “Oral gel comprising praziquantel” (Veterinärmedizinische Universität Wien, priority 2011, dated 2013).

Key:
[1] = test system: alpacas

Row | SMILES | solubility in chloroform (chloroform) | solubility in dimethylsulfoxide (dimethylsulfoxide) | solubility in ethanol (ethanol) | solubility in water (water) | intoxication following treatment [1]
1 | O=C(C1CCCCC1)N1CC(=O)N2CCc3ccccc3C2C1 (racemic) [Praziquantel, (RS)-2-Cyclohexylcarbonyl-2,3,4,6,7,11b-hexahydro-1H-pyrazino(2,1-a) isoquinolin-4-on] | easily soluble | easily soluble | soluble | up to 400 mg/L | 
2 | CCCSc1ccc2nc(NC(=O)OC)[nH]c2c1 [albendazole] |  |  |  |  | Lethal intoxications
